Calls of active or inactive are those of the source. No cut-off for these calls is given here.
Experiments:
[1] = Inhibition of yeast Alpha-glucosidase using p-nitro phenyl-alpha-D-glucopyranoside as a substrate measured after 20 mins by spectrophotocolorimetric analysis; design: species or system Saccharomyces cerevisiae
Saccharomyces cerevisiae [2] = test: Mixed type inhibition of yeast Alpha- glucosidase assessed as decrease in Vmax using varying levels of p-NPG as substrate measured after 20 mins by reciprocal Lineweaver-Burk plot analysis
Saccharomyces cerevisiae [3] = test: Mixed type inhibition of yeast Alpha- glucosidase assessed as increase in Km using varying levels of p-NPG as substrate measured after 20 mins by reciprocal Lineweaver-Burk plot analysis
Homo sapiens [4] = organism: Homo sapiens; test: Inhibition of Type-1 alpha glucosidase (unknown origin)
Homo sapiens [5] = organism: Homo sapiens; test: Inhibition of Type-2 alpha glucosidase (unknown origin)

SMILES	IC50 [1]	further results
COc1cc2c(cc1C(C)OC)C=CC(C)(C)O2 (stereo not drawn)	404 µM	
O=C(/C=C/c1ccc(O)c(O)c1)OC[C@H]1O[C@@H](Oc2cc3oc(-c4ccc(O)cc4)c(O)c(=O)c3c(O)c2O)[C@H](O)[C@@H](O)[C@@H]1O	6.94 µM	
CC(=O)c1ccc2c(c1)C=CC(C)(C)O2	460 µM	
COc1cc2c(cc1C(C)O)C=CC(C)(C)O2 (stereo not drawn)	672 µM	
C[C@H]1O[C@H](O[C@H]2[C@H](O)[C@@H](O)[C@@H](O[C@H]3[C@H](O)[C@@H](O)C(O)O[C@@H]3CO)O[C@@H]2CO)[C@H](O)[C@@H](O)[C@@H]1N[C@H]1C=C(CO)[C@@H](O)[C@H](O)[C@H]1O (stereo partly drawn) [ACARBOSE]	279 µM	inhibition (Homo sapiens [4]): Active; inhibition (Homo sapiens [5]): Active
O=c1c(O)c(-c2ccc(O)c(O)c2)oc2cc(O[C@@H]3O[C@H](CO)[C@@H](O)[C@H](O)[C@H]3O)c(O)c(O)c12	402 µM	

Further molecules by falling IC50 [1], results first:

IC50 [1]	SMILES	further results
440 µM	COc1cc2c(cc1C(C)=O)C=CC(C)(C)O2 [ENCECALIN]	
288 µM	C/C=C(/C)C(=O)O[C@@H](c1cc(C(C)=O)ccc1O)[C@H]1OC1(C)C	
0.79 µM	O=C(/C=C/c1ccc(O)c(O)c1)OC[C@H]1O[C@@H](Oc2cc3oc(-c4ccc(O)c(O)c4)c(O)c(=O)c3c(O)c2O)[C@H](O)[C@@H](O)[C@@H]1O	Vmax (Saccharomyces cerevisiae [2]): 1.42 mM/min; Km (Saccharomyces cerevisiae [3]): 610 µM
